Test results reported in ChEMBL document CHEMBL3862033 (J Med Chem, 2016).

Columns and labels:
[1] = target: T1, 5-hydroxytryptamine receptor 1A (Homo sapiens) (UniProt P08908); assay: Displacement of [3H]WAY100635 from human 5-HT1AR expressed in CHO cell membranes at 10 uM incubated for 90 mins under dark condition by microbeta scintillation counting method relative to control
T1 sequence (whole entry): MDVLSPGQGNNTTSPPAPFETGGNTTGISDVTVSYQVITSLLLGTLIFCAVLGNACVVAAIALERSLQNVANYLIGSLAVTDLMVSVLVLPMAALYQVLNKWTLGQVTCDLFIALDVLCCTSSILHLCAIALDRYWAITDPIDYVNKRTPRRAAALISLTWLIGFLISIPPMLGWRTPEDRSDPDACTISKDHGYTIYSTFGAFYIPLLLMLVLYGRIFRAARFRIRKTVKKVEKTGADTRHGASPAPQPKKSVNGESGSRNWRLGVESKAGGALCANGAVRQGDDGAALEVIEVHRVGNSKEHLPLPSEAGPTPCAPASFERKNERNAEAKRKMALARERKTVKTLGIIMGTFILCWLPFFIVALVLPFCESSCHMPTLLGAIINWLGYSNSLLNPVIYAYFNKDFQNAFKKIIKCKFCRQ

[2] = target: 5-hydroxytryptamine receptor 1B (Homo sapiens) (UniProt P28222); assay: Displacement of [3H]5-CT from human 5-HT1BR expressed in HEK cell membranes at 10 uM incubated for 90 mins under dark condition by microbeta scintillation counting method relative to control; details: HEK293
Sequence of 5-hydroxytryptamine receptor 1B (Homo sapiens) (P28222 whole entry): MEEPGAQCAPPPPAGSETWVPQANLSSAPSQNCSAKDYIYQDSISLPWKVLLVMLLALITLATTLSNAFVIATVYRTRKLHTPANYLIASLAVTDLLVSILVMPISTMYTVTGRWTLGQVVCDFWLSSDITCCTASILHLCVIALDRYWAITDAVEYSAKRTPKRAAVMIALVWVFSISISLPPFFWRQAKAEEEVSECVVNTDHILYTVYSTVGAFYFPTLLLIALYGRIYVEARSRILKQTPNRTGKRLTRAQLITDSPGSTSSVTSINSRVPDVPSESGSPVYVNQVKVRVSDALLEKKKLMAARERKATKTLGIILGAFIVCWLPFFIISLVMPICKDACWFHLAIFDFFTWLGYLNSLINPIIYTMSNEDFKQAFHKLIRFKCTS

[3] = target: 5-hydroxytryptamine receptor 1D (Homo sapiens) (UniProt P28221); assay: Displacement of [3H]5-CT from human 5-HT1D receptor expressed in HEK-T cell membranes at 10 uM incubated for 90 mins under dark condition by microbeta scintillation counting method relative to control
Sequence of 5-hydroxytryptamine receptor 1D (Homo sapiens) (P28221 whole entry): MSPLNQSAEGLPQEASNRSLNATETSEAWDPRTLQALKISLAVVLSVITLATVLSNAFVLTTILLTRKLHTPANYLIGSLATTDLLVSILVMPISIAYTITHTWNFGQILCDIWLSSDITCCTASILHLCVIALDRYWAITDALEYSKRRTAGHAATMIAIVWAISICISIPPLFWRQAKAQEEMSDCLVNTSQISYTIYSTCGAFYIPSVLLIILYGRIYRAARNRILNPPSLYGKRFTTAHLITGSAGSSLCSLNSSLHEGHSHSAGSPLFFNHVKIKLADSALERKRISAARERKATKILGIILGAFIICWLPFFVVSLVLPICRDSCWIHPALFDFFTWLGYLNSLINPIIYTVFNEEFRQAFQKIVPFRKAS

[4] = target: 5-hydroxytryptamine receptor 1E (Homo sapiens) (UniProt P28566); assay: Displacement of [3H]5-HT from human 5-HT1E receptor expressed in HEK cell membranes at 10 uM incubated for 90 mins under dark condition by microbeta scintillation counting method relative to control; details: HEK293
Sequence of 5-hydroxytryptamine receptor 1E (Homo sapiens) (P28566 whole entry): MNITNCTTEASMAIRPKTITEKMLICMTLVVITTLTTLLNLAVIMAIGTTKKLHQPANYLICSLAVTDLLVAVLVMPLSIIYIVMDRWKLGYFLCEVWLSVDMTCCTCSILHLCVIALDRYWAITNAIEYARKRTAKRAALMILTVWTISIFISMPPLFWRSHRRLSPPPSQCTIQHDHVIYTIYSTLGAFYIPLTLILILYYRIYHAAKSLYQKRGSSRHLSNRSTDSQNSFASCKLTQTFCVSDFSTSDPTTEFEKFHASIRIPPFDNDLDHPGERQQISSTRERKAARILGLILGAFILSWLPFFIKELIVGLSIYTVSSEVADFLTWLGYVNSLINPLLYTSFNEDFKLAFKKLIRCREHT

[5] = target: 5-hydroxytryptamine receptor 4 (Homo sapiens) (UniProt Q13639); assay: Displacement of [3H]GR113808 from human 5-HT4 receptor at 10 uM incubated for 90 mins under dark condition by microbeta scintillation counting method relative to control
Sequence of 5-hydroxytryptamine receptor 4 (Homo sapiens) (Q13639 whole entry): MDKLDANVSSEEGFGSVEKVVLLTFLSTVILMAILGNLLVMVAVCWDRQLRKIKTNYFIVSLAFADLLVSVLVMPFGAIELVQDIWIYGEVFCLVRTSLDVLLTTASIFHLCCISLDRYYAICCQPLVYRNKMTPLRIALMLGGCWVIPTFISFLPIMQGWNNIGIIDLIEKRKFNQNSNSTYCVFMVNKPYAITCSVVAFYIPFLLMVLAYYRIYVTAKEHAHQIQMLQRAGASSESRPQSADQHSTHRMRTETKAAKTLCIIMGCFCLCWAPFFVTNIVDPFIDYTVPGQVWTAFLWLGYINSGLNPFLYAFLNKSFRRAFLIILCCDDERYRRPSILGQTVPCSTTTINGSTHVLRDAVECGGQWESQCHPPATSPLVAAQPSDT

[6] = target: 5-hydroxytryptamine receptor 6 (Homo sapiens) (UniProt P50406); assay: Displacement of [3H]LSD from human 5-HT6 receptor expressed in HEK cell membranes at 10 uM incubated for 90 mins under dark condition by microbeta scintillation counting method relative to control; details: HEK293
Sequence of 5-hydroxytryptamine receptor 6 (Homo sapiens) (P50406 whole entry): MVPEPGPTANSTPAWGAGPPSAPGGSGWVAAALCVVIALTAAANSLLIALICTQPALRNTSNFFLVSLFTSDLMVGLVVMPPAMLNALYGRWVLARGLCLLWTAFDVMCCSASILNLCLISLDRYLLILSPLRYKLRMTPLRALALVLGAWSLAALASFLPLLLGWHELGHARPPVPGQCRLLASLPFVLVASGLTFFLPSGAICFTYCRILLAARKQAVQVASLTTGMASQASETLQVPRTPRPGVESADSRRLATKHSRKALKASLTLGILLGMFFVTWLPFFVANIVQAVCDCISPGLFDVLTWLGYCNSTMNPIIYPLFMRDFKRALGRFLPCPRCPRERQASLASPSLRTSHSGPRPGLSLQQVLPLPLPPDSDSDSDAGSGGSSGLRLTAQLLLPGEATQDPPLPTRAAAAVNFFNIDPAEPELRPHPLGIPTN

[7] = target: 5-hydroxytryptamine receptor 7 (Homo sapiens) (UniProt P34969); assay: Displacement of [3H]LSD from human 5-HT7A receptor expressed in HEK cell membranes at 10 uM incubated for 90 mins under dark condition by microbeta scintillation counting method relative to control; details: HEK293
Sequence of 5-hydroxytryptamine receptor 7 (Homo sapiens) (P34969 whole entry): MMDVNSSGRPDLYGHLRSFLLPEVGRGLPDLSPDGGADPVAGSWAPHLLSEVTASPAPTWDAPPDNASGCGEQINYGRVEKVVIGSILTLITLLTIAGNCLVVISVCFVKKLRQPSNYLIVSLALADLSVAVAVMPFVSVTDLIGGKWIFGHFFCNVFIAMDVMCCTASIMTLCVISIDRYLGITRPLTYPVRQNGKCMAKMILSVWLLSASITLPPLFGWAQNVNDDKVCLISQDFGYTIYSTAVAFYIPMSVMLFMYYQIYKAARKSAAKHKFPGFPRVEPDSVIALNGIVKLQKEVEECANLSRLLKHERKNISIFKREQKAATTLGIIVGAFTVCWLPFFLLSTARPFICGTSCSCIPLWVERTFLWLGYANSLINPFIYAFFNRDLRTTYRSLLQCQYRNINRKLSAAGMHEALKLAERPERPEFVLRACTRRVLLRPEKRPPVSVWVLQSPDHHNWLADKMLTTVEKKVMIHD

[8] = target: T2, 5-hydroxytryptamine receptor 3A (Homo sapiens) (UniProt P46098); assay: Displacement of [3H]GR65630 from human 5-HT3 receptor expressed in HEK-T cell membranes at 10 uM incubated for 90 mins under dark condition by microbeta scintillation counting method relative to control
T2 sequence (whole entry): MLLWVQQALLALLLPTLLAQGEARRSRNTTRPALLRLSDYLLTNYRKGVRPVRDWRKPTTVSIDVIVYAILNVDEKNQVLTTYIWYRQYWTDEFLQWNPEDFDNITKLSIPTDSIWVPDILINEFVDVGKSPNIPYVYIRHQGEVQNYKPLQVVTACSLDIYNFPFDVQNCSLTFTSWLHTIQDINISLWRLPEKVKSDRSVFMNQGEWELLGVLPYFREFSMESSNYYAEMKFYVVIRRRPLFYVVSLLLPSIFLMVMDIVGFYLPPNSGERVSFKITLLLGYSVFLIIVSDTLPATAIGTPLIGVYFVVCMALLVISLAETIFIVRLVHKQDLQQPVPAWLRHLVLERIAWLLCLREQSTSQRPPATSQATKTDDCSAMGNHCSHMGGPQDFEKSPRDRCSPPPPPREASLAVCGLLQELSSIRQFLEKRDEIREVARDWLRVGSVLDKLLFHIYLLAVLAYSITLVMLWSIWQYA

[9] = target: 5-hydroxytryptamine receptor 5A (Homo sapiens) (UniProt P47898); assay: Displacement of [3H]LSD from human 5-HT5A receptor expressed in Flp-In-CHO cell membranes incubated for 90 mins under dark condition by microbeta scintillation counting method relative to control; design: concentration or dose not given beside the values
Sequence of 5-hydroxytryptamine receptor 5A (Homo sapiens) (P47898 whole entry): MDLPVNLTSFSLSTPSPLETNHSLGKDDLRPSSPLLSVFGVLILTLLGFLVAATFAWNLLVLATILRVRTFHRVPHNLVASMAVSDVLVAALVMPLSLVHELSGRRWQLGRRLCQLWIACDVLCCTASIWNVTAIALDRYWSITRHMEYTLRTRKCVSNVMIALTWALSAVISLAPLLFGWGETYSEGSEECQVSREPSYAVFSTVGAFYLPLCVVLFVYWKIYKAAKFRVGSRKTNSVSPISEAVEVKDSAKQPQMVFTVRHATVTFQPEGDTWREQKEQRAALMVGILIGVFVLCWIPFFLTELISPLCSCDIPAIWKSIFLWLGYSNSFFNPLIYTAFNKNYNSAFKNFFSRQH

[10] = target: T3, 5-hydroxytryptamine receptor 2A (Homo sapiens, UniProt P28223); assay: Displacement of [3H]ketanserin from human 5-HT2A receptor expressed in HEK-T cell membranes at 10 uM incubated for 90 mins under dark condition by microbeta scintillation counting method relative to control
T3 sequence (P28223 whole entry): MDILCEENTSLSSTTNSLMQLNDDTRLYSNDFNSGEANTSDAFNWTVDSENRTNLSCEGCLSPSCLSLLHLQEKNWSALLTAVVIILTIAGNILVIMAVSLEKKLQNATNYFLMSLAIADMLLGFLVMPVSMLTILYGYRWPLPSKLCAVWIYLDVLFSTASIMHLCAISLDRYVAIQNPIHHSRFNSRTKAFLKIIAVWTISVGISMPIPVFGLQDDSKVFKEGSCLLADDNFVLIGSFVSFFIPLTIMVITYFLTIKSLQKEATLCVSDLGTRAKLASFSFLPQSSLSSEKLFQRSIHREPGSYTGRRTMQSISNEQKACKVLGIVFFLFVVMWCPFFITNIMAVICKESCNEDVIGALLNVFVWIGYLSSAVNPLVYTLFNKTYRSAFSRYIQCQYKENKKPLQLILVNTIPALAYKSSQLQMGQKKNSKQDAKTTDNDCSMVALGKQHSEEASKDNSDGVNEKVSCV

[11] = target: T4, 5-hydroxytryptamine receptor 2B (Homo sapiens, UniProt P41595); assay: biochemical; assay type: cell-based, HEK293
T4 sequence (P41595 whole entry): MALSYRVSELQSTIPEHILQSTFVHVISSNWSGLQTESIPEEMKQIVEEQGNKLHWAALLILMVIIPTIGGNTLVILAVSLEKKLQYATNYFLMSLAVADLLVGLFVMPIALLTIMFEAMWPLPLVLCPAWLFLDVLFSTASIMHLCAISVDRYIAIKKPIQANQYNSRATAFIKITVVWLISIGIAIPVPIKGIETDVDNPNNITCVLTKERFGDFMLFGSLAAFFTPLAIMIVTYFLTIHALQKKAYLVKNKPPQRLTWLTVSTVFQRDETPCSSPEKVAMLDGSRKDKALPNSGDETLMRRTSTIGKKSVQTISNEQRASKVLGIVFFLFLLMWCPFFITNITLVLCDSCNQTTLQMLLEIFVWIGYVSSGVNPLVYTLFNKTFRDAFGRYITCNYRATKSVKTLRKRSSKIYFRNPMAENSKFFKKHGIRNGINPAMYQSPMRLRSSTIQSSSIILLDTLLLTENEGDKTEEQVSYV

[12] = target: T5, 5-hydroxytryptamine receptor 2C (Homo sapiens, UniProt P28335); assay: Displacement of [3H]mesulergine from human 5-HT2CR expressed in Flp-In HEK cell membranes incubated for 90 mins under dark condition by microbeta scintillation counting method; design: species or system HEK293
T5 sequence (P28335 whole entry): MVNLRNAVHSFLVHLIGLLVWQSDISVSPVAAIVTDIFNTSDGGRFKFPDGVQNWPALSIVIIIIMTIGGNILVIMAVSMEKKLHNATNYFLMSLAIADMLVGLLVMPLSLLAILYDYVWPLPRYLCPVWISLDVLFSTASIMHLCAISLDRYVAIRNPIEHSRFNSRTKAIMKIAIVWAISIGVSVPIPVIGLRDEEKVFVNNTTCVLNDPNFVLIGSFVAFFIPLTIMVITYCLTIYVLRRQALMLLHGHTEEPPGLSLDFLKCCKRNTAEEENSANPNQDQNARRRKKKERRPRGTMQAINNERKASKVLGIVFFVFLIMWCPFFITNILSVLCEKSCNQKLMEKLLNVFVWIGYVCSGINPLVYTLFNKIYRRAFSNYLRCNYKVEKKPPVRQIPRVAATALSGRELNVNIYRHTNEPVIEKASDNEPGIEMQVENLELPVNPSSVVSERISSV

[13] = target: T6, 5-hydroxytryptamine receptor 2C (Homo sapiens) (UniProt P28335); assay: Displacement of [3H]mesulergine from human 5-HT2CR expressed in Flp-In HEK cell membranes at 10 uM incubated for 90 mins under dark condition by microbeta scintillation counting method relative to control; details: HEK293
T6 sequence (whole entry): T5 sequence (P28335 whole entry)

Adenosine receptor A1 = target: T7, Adenosine receptor A1 (Homo sapiens, UniProt P30542); assay: Displacement of [3H]N6-phenylisopropyladenosine from recombinant human A1AR expressed in CHO cell membranes after 60 mins by liquid scintillation counting method
T7 sequence (P30542 whole entry): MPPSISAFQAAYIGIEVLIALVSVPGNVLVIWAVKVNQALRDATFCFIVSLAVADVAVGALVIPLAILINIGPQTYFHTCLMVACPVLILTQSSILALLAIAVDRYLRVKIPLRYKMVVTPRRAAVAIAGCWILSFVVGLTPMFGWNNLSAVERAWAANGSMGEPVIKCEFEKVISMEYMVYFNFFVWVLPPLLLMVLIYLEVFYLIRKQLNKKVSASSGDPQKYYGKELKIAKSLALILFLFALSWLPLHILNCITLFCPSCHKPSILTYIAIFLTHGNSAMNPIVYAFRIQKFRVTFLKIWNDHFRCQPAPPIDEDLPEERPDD

Adenosine receptor A2a = Adenosine receptor A2a (Homo sapiens, UniProt P29274); assay: Displacement of [3 H]2-[p-(2-carboxyethyl)phenyl-ethylamino]-5'-N-ethylcarboxamidoadenosine from recombinant human adenosine receptor A2A expressed in HEK293 cell membranes at 10 uM after 60 mins by liquid scintillation counting method relative to control
Sequence of Adenosine receptor A2a (P29274 whole entry): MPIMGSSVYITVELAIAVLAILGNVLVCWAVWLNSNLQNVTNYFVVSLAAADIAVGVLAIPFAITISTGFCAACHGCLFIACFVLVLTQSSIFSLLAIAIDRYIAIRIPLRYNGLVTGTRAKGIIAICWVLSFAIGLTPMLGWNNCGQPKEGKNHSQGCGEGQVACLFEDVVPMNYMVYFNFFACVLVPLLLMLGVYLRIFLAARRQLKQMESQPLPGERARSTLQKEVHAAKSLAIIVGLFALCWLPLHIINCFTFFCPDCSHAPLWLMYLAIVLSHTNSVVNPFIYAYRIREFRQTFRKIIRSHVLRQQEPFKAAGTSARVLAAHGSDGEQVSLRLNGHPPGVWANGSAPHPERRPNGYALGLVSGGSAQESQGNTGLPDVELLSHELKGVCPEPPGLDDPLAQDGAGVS

Adenosine receptor A3 = target: T8, Adenosine receptor A3 (Homo sapiens, UniProt P0DMS8); assay: Displacement of [125l]N 6-(4-amino-3-iodobenzyl)adenosine-5'-N-methyluronamide from recombinant human A3AR expressed in CHO cell membranes after 60 mins by gamma counting method
T8 sequence (P0DMS8 whole entry): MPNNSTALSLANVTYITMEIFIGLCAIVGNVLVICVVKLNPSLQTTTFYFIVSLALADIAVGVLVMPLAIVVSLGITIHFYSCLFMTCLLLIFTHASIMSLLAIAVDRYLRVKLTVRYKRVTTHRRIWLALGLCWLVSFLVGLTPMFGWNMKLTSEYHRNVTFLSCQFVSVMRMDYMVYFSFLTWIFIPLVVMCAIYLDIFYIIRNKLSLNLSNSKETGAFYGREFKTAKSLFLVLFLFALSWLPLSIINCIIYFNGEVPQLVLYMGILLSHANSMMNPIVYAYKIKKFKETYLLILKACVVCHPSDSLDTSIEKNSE

Translocator protein = Translocator protein (Homo sapiens, UniProt P30536); assay: Inhibition of TSPO (unknown origin)
Sequence of Translocator protein (P30536 whole entry): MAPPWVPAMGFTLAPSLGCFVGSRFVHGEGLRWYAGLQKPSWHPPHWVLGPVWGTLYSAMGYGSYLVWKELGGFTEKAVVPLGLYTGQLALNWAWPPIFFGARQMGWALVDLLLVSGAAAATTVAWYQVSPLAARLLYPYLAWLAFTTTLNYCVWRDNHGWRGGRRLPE

[14] = target: T3, 5-hydroxytryptamine receptor 2A; assay: Displacement of [3H]ketanserin from human 5-HT2A receptor expressed in HEK-T cell membranes incubated for 90 mins under dark condition by microbeta scintillation counting method
[15] = target: T4, 5-hydroxytryptamine receptor 2B; details: HEK293, at 10 µM
[16] = target: T9, Adenosine receptor A1 (Homo sapiens) (UniProt P30542); assay: Displacement of [3H]N6-phenylisopropyladenosine from recombinant human A1AR expressed in CHO cell membranes at 10 uM after 60 mins by liquid scintillation counting method relative to control
T9 sequence (whole entry): T7 sequence (P30542 whole entry)

[17] = Displacement of [3H]DTG from sigma2 receptor in rat PC12 cells after 90 mins by microbeta scintillation counting method; assay type: cell-based; details: pc-12
[18] = target: Adenosine receptor A3 (Homo sapiens) (UniProt P0DMS8); assay: Displacement of [125l]N 6-(4-amino-3-iodobenzyl)adenosine-5'-N-methyluronamide from recombinant human A3AR expressed in CHO cell membranes at 10 uM after 60 mins by gamma counting method relative to control
[19] = target: 5-hydroxytryptamine receptor 3A (Homo sapiens, UniProt P46098); assay: Displacement of [3H]GR65630 from human 5-HT3 receptor expressed in HEK-T cell membranes incubated for 90 mins under dark condition by microbeta scintillation counting method

inhibition [8] [%]	inhibition [16] [%]	SMILES	inhibition [1] [%]	inhibition [2] [%]	inhibition [3] [%]	inhibition [4] [%]	inhibition [5] [%]	inhibition [6] [%]	inhibition [7] [%]	inhibition [9] [%]	inhibition [10] [%]	Ki [11] [nM]	Ki [12] [nM]	inhibition [13] [%]	Ki (Adenosine receptor A1) [nM]	inhibition (Adenosine receptor A2a) [%]	Ki (Adenosine receptor A3) [nM]	Ki [14] [nM]	inhibition [15] [%]	also measured
< 50	25	CNC(=O)[C@@]12C[C@@H]1[C@@H](n1cnc3c(N(C)C)nc(C#Cc4ccc(Cl)s4)nc31)[C@H](O)[C@@H]2O	< 50	< 50	< 50	< 50	< 50	< 50	< 50	< 50	27	–	8500	> 50	–	15	23.5	> 10000	< 10	Ki [17]: 7300 nM
< 50	< 10	CCOC(=O)[C@@]12C[C@@H]1[C@@H](n1cnc3c(N(C)C)nc(Cl)nc31)[C@H](O)[C@@H]2O	< 50	< 50	< 50	< 50	< 50	< 50	< 50	< 50	< 10	671	1350	> 50	–	13	–	> 10000	> 50	inhibition [18]: 30%
–	–	O[C@@H]1[C@H](O)[C@@H]2C[C@@H]2[C@H]1n1cnc2c(NCc3cccc(Cl)c3)nc(Cl)nc21	< 50	< 50	< 50	< 50	< 50	< 50	< 50	< 50	< 10	2390	4100	> 50	1600	> 50	–	> 10000	> 50	Ki [19]: 3260 nM

SMILES	inhibition [8] [%]	inhibition [16] [%]	inhibition [1] [%]	inhibition [2] [%]	inhibition [3] [%]	inhibition [4] [%]	inhibition [5] [%]	inhibition [6] [%]	inhibition [7] [%]	inhibition [9] [%]	inhibition [10] [%]	Ki [11] [nM]	Ki [12] [nM]	inhibition [13] [%]	Ki (Adenosine receptor A1) [nM]	inhibition (Adenosine receptor A2a) [%]	Ki (Adenosine receptor A3) [nM]	Ki [14] [nM]	inhibition [15] [%]	also measured
CCCOC(=O)[C@@]12C[C@@H]1[C@@H](n1cnc3c(NC(C4CC4)C4CC4)nc(Cl)nc31)[C@H](O)[C@@H]2O	< 50	–	< 50	< 50	< 50	< 50	< 50	< 50	< 50	< 50	< 10	45	205	> 50	440	19	499	> 10000	> 50	Ki (Translocator protein): 2200 nM
